{"source": "EPA's ToxRefDB 2", "key": {"rat [1]": {"tested_on": "rat", "conditions": "Subchronic oral toxicity in rodents, sprague dawley, Gavage/Intubation, dose end: 90 day, group: systemic"}, "rat [2]": {"tested_on": "rat", "conditions": "Multigenerational reproductive toxicity study, sprague dawley, Oral, Gavage/Intubation, dose end: 2 generation"}, "mouse [3]": {"tested_on": "mouse", "conditions": "Combined chronic toxicity/carcinogenicity, b6c3f1, Oral, Feed, dose end: 104 week, group: systemic"}, "rat [4]": {"tested_on": "rat", "conditions": "Multigenerational reproductive toxicity study, sprague dawley, Oral, Feed, dose end: 2 generation"}, "dog [5]": {"tested_on": "dog", "conditions": "Chronic toxicity; beagle; Oral; Gavage/Intubation; dose end: 52 week; group: systemic; systemic / clinical chemistry / albumin / albumin + systemic / clinical chemistry / alkaline phosphatase (alp/alk) / alkaline phosphatase (…"}, "dog [6]": {"tested_on": "dog", "conditions": "Subchronic oral toxicity in nonrodent, beagle, Gavage/Intubation, dose end: 13 week, group: systemic, systemic / hematology / mean corpuscular hemoglobin (mch) / mean corpuscular hemoglobin (mch) + systemic / hematology / mean corpuscular …"}, "rabbit": {"tested_on": "rabbit", "conditions": "Prenatal developmental toxicity study, new zealand white, Oral, Gavage/Intubation, dose end: 19 GD"}, "rat [7]": {"tested_on": "rat", "conditions": "Combined chronic toxicity/carcinogenicity, sprague dawley, Oral, Feed, dose end: 104 week, group: systemic"}, "rat [8]": {"tested_on": "rat", "conditions": "Prenatal developmental toxicity study, sprague dawley, Oral, Gavage/Intubation, dose end: 15 GD"}, "rat [9]": {"tested_on": "rat", "conditions": "Subchronic oral toxicity in rodents, other, Feed, dose end: 90 day, group: systemic"}, "mouse [10]": {"tested_on": "mouse", "conditions": "Subchronic oral toxicity in rodents, b6c3f1, Feed, dose end: 15 week"}, "[11]": {"conditions": "systemic / clinical chemistry / albumin / albumin + systemic / clinical chemistry / protein / protein + systemic / pathology microscopic / …"}, "[12]": {"conditions": "systemic / organ weight / spleen / absolute + systemic / organ weight / spleen / relative to body weight + systemic / organ weight / spleen…"}, "[13]": {"conditions": "group: offspring, systemic / organ weight / spleen / absolute"}, "[14]": {"conditions": "group: offspring, systemic / organ weight / spleen / absolute + systemic / pathology microscopic / kidney / edema + systemic / pathology microscopic / kidney…"}, "[15]": {"conditions": "group: parental, systemic / in life observation / body weight / body weight + systemic / in life observation / body weight / body weight gain + systemic / in…"}, "[16]": {"conditions": "systemic / clinical chemistry / albumin / albumin + systemic / clinical chemistry / alkaline phosphatase (alp/alk) / alkaline phosphatase (…"}, "[17]": {"conditions": "systemic / organ weight / kidney / relative to body weight + systemic / organ weight / kidney / absolute"}, "[18]": {"conditions": "group: offspring, systemic / in life observation / body weight / offspring (pup) weight gain + systemic / in life observation / body weight / offspring (pup) …"}, "[19]": {"conditions": "group: parental, systemic / in life observation / body weight / body weight + systemic / in life observation / body weight / body weight gain"}, "[20]": {"conditions": "group: reproductive, reproductive / offspring survival early / litter size / litter size"}, "[21]": {"conditions": "group: reproductive, reproductive / offspring survival early / litter size / litter size + reproductive / reproductive performance / fertility / fertility"}, "[22]": {"conditions": "group: developmental, systemic / in life observation / body weight / fetal weight"}, "[23]": {"conditions": "group: developmental, systemic / in life observation / body weight / fetal weight + developmental / developmental malformation / bone / misshapen + developmental…"}, "[24]": {"conditions": "group: maternal, reproductive / reproductive performance / postimplantation loss / postimplantation loss + reproductive / reproductive performance / …"}, "[25]": {"conditions": "systemic / in life observation / body weight / body weight gain"}, "[26]": {"conditions": "systemic / in life observation / body weight / body weight gain + systemic / clinical chemistry / albumin / albumin + systemic / clinical …"}, "[27]": {"conditions": "group: developmental, developmental / developmental malformation / bone / absent"}, "[28]": {"conditions": "group: maternal, systemic / in life observation / body weight / body weight gain"}, "[29]": {"conditions": "group: maternal, reproductive / reproductive performance / fertility / fertility"}, "[30]": {"conditions": "group: systemic, systemic / clinical chemistry / alkaline phosphatase (alp/alk) / alkaline phosphatase (alp/alk) + systemic / hematology / hematocrit (hct…"}, "[31]": {"conditions": "group: systemic, systemic / in life observation / food consumption / food consumption"}}}
{"smiles": "O=S(=O)([O-])C(F)(F)C(F)(F)C(F)(F)C(F)(F)F.[K+]", "note": "[PFBS-K]", "values": [{"measurement": "LOAEL", "setting": "rat [1]; [11]", "result": "> 600", "unit": "mg/kg/day"}, {"measurement": "NOAEL", "setting": "rat [1]; [11]", "result": "≥ 600", "unit": "mg/kg/day"}, {"measurement": "LEL", "setting": "rat [1]; [12]", "result": 60, "unit": "mg/kg/day"}, {"measurement": "NEL", "setting": "rat [1]; [12]", "result": "< 60", "unit": "mg/kg/day"}, {"measurement": "LEL", "setting": "rat [2]; [13]", "result": 30, "unit": "mg/kg/day"}, {"measurement": "NEL", "setting": "rat [2]; [13]", "result": "< 30", "unit": "mg/kg/day"}, {"measurement": "LOAEL", "setting": "rat [2]; [14]", "result": "> 1000", "unit": "mg/kg/day"}, {"measurement": "NOAEL", "setting": "rat [2]; [14]", "result": "≥ 1000", "unit": "mg/kg/day"}, {"measurement": "LOAEL", "setting": "rat [2]; [15]", "result": "> 1000", "unit": "mg/kg/day"}, {"measurement": "NEL", "setting": "rat [2]; [15]", "result": 100, "unit": "mg/kg/day"}, {"measurement": "NOAEL", "setting": "rat [2]; [15]", "result": "≥ 1000", "unit": "mg/kg/day"}, {"measurement": "LEL", "setting": "rat [2]; group: parental, systemic / pathology microscopic / kidney / edema + systemic / pathology microscopic / kidney / hyperplasia + systemic / organ weight / …", "result": 300, "unit": "mg/kg/day"}]}
{"smiles": "CON(C)C(=O)Nc1ccc(Oc2ccc3c(c2)OC(C)(OC)CC3(C)C)cc1", "note": "(stereo not drawn) [Metobenzuron]", "values": [{"measurement": "LOAEL", "setting": "mouse [3]; [16]", "result": 139, "unit": "mg/kg/day"}, {"measurement": "NOAEL", "setting": "mouse [3]; [16]", "result": 41.1, "unit": "mg/kg/day"}, {"measurement": "LEL", "setting": "mouse [3]; [17]", "result": 6.9, "unit": "mg/kg/day"}, {"measurement": "NEL", "setting": "mouse [3]; [17]", "result": "< 6.9", "unit": "mg/kg/day"}, {"measurement": "LOAEL", "setting": "rat [4]; group: offspring, systemic / in life observation / body weight / offspring (pup) weight gain", "result": 18.8, "unit": "mg/kg/day"}, {"measurement": "LEL", "setting": "rat [4]; [18]", "result": 18.8, "unit": "mg/kg/day"}, {"measurement": "NEL", "setting": "rat [4]; [18]", "result": 3.75, "unit": "mg/kg/day"}, {"measurement": "NOAEL", "setting": "rat [4]; [18]", "result": 3.75, "unit": "mg/kg/day"}, {"measurement": "LEL", "setting": "rat [4]; [19]", "result": 18.8, "unit": "mg/kg/day"}, {"measurement": "LOAEL", "setting": "rat [4]; [19]", "result": 37.5, "unit": "mg/kg/day"}, {"measurement": "NEL", "setting": "rat [4]; [19]", "result": 3.75, "unit": "mg/kg/day"}, {"measurement": "NOAEL", "setting": "rat [4]; [19]", "result": 18.8, "unit": "mg/kg/day"}, {"measurement": "LEL", "setting": "rat [4]; [20]", "result": 18.8, "unit": "mg/kg/day"}, {"measurement": "LOAEL", "setting": "rat [4]; [20]", "result": 18.8, "unit": "mg/kg/day"}, {"measurement": "NEL", "setting": "rat [4]; [21]", "result": 3.75, "unit": "mg/kg/day"}, {"measurement": "NOAEL", "setting": "rat [4]; [21]", "result": 3.75, "unit": "mg/kg/day"}, {"measurement": "LEL", "setting": "dog [5]", "result": 75, "unit": "mg/kg/day"}, {"measurement": "LOAEL", "setting": "dog [5]", "result": 75, "unit": "mg/kg/day"}, {"measurement": "NEL", "setting": "dog [5]", "result": 5, "unit": "mg/kg/day"}, {"measurement": "NOAEL", "setting": "dog [5]", "result": 5, "unit": "mg/kg/day"}, {"measurement": "LEL", "setting": "dog [6]", "result": 25, "unit": "mg/kg/day"}, {"measurement": "LOAEL", "setting": "dog [6]", "result": 25, "unit": "mg/kg/day"}, {"measurement": "NEL", "setting": "dog [6]", "result": 5, "unit": "mg/kg/day"}, {"measurement": "NOAEL", "setting": "dog [6]", "result": 5, "unit": "mg/kg/day"}, {"measurement": "LOAEL", "setting": "rabbit; [22]", "result": 100, "unit": "mg/kg/day"}, {"measurement": "LEL", "setting": "rabbit; [23]", "result": 100, "unit": "mg/kg/day"}, {"measurement": "NEL", "setting": "rabbit; [23]", "result": 50, "unit": "mg/kg/day"}, {"measurement": "NOAEL", "setting": "rabbit; [23]", "result": 50, "unit": "mg/kg/day"}, {"measurement": "LEL", "setting": "rabbit; [24]", "result": 100, "unit": "mg/kg/day"}, {"measurement": "LOAEL", "setting": "rabbit; [24]", "result": 100, "unit": "mg/kg/day"}, {"measurement": "NEL", "setting": "rabbit; [24]", "result": 50, "unit": "mg/kg/day"}, {"measurement": "NOAEL", "setting": "rabbit; [24]", "result": 50, "unit": "mg/kg/day"}, {"measurement": "LEL", "setting": "rat [7]; systemic / in life observation / body weight / body weight", "result": 4.4, "unit": "mg/kg/day"}, {"measurement": "LOAEL", "setting": "rat [7]; [25]", "result": 23.1, "unit": "mg/kg/day"}, {"measurement": "NEL", "setting": "rat [7]; [26]", "result": 1.5, "unit": "mg/kg/day"}, {"measurement": "NOAEL", "setting": "rat [7]; [26]", "result": 4.4, "unit": "mg/kg/day"}, {"measurement": "LEL", "setting": "rat [8]; [27]", "result": 25, "unit": "mg/kg/day"}, {"measurement": "NEL", "setting": "rat [8]; [27]", "result": "< 25", "unit": "mg/kg/day"}, {"measurement": "LOAEL", "setting": "rat [8]; [22]", "result": 50, "unit": "mg/kg/day"}, {"measurement": "NOAEL", "setting": "rat [8]; group: developmental, systemic / in life observation / body weight / fetal weight + developmental / developmental malformation / bone / absent + developmental / …", "result": 25, "unit": "mg/kg/day"}, {"measurement": "LEL", "setting": "rat [8]; [28]", "result": 25, "unit": "mg/kg/day"}, {"measurement": "LOAEL", "setting": "rat [8]; [28]", "result": 25, "unit": "mg/kg/day"}, {"measurement": "NEL", "setting": "rat [8]; [28]", "result": "< 25", "unit": "mg/kg/day"}, {"measurement": "NOAEL", "setting": "rat [8]; [28]", "result": "< 25", "unit": "mg/kg/day"}, {"measurement": "LEL", "setting": "rat [9]; [25]", "result": 7.29, "unit": "mg/kg/day"}, {"measurement": "LOAEL", "setting": "rat [9]; [25]", "result": 45, "unit": "mg/kg/day"}, {"measurement": "NEL", "setting": "rat [9]; [25]", "result": "< 7.29", "unit": "mg/kg/day"}, {"measurement": "NOAEL", "setting": "rat [9]; [26]", "result": 6.05, "unit": "mg/kg/day"}, {"measurement": "LEL", "setting": "mouse [10]; [29]", "result": 308, "unit": "mg/kg/day"}, {"measurement": "LOAEL", "setting": "mouse [10]; [29]", "result": "> 308", "unit": "mg/kg/day"}, {"measurement": "NEL", "setting": "mouse [10]; [29]", "result": 91, "unit": "mg/kg/day"}, {"measurement": "NOAEL", "setting": "mouse [10]; [29]", "result": "≥ 308", "unit": "mg/kg/day"}, {"measurement": "LOAEL", "setting": "mouse [10]; [30]", "result": 91, "unit": "mg/kg/day"}, {"measurement": "NOAEL", "setting": "mouse [10]; [30]", "result": 20, "unit": "mg/kg/day"}, {"measurement": "LEL", "setting": "mouse [10]; [31]", "result": 25, "unit": "mg/kg/day"}, {"measurement": "NEL", "setting": "mouse [10]; [31]", "result": "< 25", "unit": "mg/kg/day"}]}
